Source: US11266710B2, “Angio-3 for treatment of retinal angiogenic diseases” (SINGAPORE HEALTH SERVICES PTE LTD, priority 2017, dated 2022)
Where no end group is shown, it is not given here.

Key:
[1] = system: laser-induced CNV in C57/BL6J (B6J) wild type mice; assay: Laser-induced choroidal neovascularization (CNV) model in mice, area of leakage by FFA; assay type: in vivo; conditions: mice; IV route
Experimental: (§1) FIG. 3A is a schematic of the experimental design on the efficacy of Angio-3 in a laser-induced choroidal neovascularization (CNV) model in mice (B6J WT mice). FIG. 3B are FFA images of baseline and at different time points post treatment. IV single injection of 100 μL of Angio-3 (25 mg/Kg Bwt) was given at Day 0 (prevention mode) and 4 days after laser (regression mode) and followed for 10 weeks. FIG. 3C is a graph showing the area of leakage by each eye for various groups. FIG. 3D are graphs of the mean area of leakage of all batches for each group. […] The attenuation retinal vascularization was better than scrambled peptide. n=6 eyes per batch; n=3 batches. Values are expressed as means±s.e.m., **P<0.01, *P<0.05, student's t-test. FIG. 3E is a graph of the result of the Retinal Function Test that measures ERG changes in Angio-3 treated and control.
FIG. 4A is a schematic of the experimental design on the efficacy of Angio-3 by IVT administration. […]
FIG. 11 A are FFA images of baseline and at different time points post treatment. Mice received single IVT injection of Angio-3 (at a dose of 1 μg in 1 μl or 100 ng in 1 μl), and chemically modified Angio-3 peptides Pep-N (at doses of 5 μg in μl; 1 μg in μl; and 100 ng in 1 μl, respectively) and Pep-Q peptides (at doses of 5 μg in μl; 1 μg in μl; and 100 ng in 1 μl, respectively). FIG. 11 B is a graph of the area of leakage by each eye. Single dose attenuates retinal angiogenesis in laser-induced mice CNV model via IVT route till 4 weeks. […] Eylea is the positive control. n=18 eyes per group; Values are expressed as means±s.e.m. n=3 independent experiment, **P<0.01, *P<0.05, student's t-test.
Laser induced choridal neo-vascularization (CNV) in C57/BL6J (B6J) wild type mice (n=90).
In B6J mice, single injection of 100 μl volume at 25 mg/kg Bwt concentration Angio-3 was injected via intravenous (i/v) route and this was tested in both Preventive mode (before laser) and Regression mode (4 days after laser). […]
Angio-3 was also injected via intravitreal (IVT) route, single injection of 1 μl volume at 2 different doses; 1 μg (High dose) and 100 ng (Low dose).
4 laser photocoagulation sites were placed concentrically around the optic disc of both eyes to induce CNVs. A diode laser (810 nm) was used with a relative potency scale of 120 mW for mice and 250 mW for rats, an exposure time of 0.05 s, and a spot size of […]. Laser spots were focused with crystal covers to avoid laser beam dispersion. Bubble formation was confirmed the rupture of Bruch's membrane.
Fundus photography and fundus fluorescein angiography (FFA) was imaged using a MICRON IV fundus camera (Phoenix Laboratories USA). For FFA, animals were intraperitoneally injected with 10% sodium fluorescein at a dose of 0.01 ml per 5-6 gm body weight.
In B6J mice, single intravitreous (IVT) injection of 100 ng, 1 μg, 5 μg PEP-Q, PEP-N (modified Angio-3), Angio-3 and Eylea were executed and this was tested in Prevention mode (before laser) Method of Llser induced CNV model and injection was described as above.

[2] = system: retinal function (a- and b-wave) in B6J WT mice; assay: Retinal function test (ERG) in laser-induced CNV mice; assay type: in vivo, mouse; conditions: laser-induced CNV mice with and without Angio-3 treatment
Experimental: as §1
Animals were dark-adapted overnight (12 h), and the preparations for recordings were carried out under dim red light. Anesthesia and pupil dilation were induced as described. Animals were lightly secured to a stage with fastener strips across the upper and lower back to ensure a stable, reproducible position for ERG recordings. […] ERGs were recorded (Espion; Diagnosis LLC, Redwood City, Calif.) with corneal monopolar electrodes (Mayo, Aichi, Japan). […]

[3] = system: KIBA mice that overexpress hVEGF; assay: Retinal function tests (ERG) in KIBA/KIMBA mice overexpressing hVEGF; assay type: in vivo, mouse; conditions: IVT treated; 2nd IVT at 12 weeks after 1st treatment
Experimental: Eight-week-old KIBA mice that overexpress hVEGF were dark-adapted overnight (for at least 12 hours) and all the procedures were carried out under dim red light. Mice were anesthetized with a combination of ketamine (20 mg/kg body weight) and xylazine (2 mg/kg body weight). Pupils were dilated with a topical administration of 1% tropicamide (Alcon Laboratories, Inc., Fort Worth, Tex., USA) and 2.5% phenylephrine (Bausch and Lomb Pharmaceuticals, Inc., Tampa, Fla., USA) ophthalmic solutions.
Animals were placed in ERG recording table with body temperature controller for ERG recordings. Electroretinograms were recorded (Espion; Diagnosys LLC, Lowell, Mass., USA) with corneal monopolar electrodes. A goldcup electrode was placed in the mouth to serve as the reference electrode, and a silver-silver chloride electrode (Grass-Telefactor, West Warwick, R.I., USA) was placed in the tail to serve as the ground electrode. Recordings were performed at a wide range of stimulus intensity (−3.0 to 1.0 log cd·s/m2) in dark-adapted (scotopic) condition. The response a teach flash intensity was an average of at least five trials. […]
ERG was recorded from 8 weeks old to 24 weeks old of mice in untreated group (naïve group). In Angio-3 IVT treated group, ERG was recorded at 8 weeks old as baseline (BL) and then 6 and 12 weeks post treatment. […]

[4] = system: corneal epithelial wound in wild-type mice; assay: Corneal wound healing in a mouse model; assay type: in vivo; conditions: day 0 to Day 5; treated vs control wild-type mice
Description: FIGS. 28A and 28B are images and a graph showing results of testing wound healing in a mouse model. FIG. 28A are representative slitlamp biomicroscopy images of murine cornea following the removal of corneal epithelium from Angio-3 treated and control wild-type mice and topical fluorescein staining of the epithelial defect (green). FIG. 28B is a graph of the percentage of wound defect remaining (vertical axis) over time (horizontal axis) in Angio-3 treated and control wild-type mice, n=6 for each group from 2 independent experiments. Both groups are statistically significant. Angio-3 didn't affect the normal wound healing process. Data is represented as mean±S.D.
Two (2)-mm trephine was used to mark the wound size. Epithelium, basement membrane and some stromal layers were removed by peeling using forceps. Fluorescein staining to the wounded area of cornea was done from day 0 to Day 5 (n=6 mice per group from 2 independent experiments). Gentle and meticulous approach when wounding and handling mouse cornea, fluorescein was diluted, slit lamp images had to be taken within a few seconds after staining. The wound area was quantified by ImageJ software. Student's t-test was used to compare data between two groups; P<0.05 was considered to be significant.

## TPHTHNRTPE [Angio-3, Thr Pro His Thr His Asn Arg Thr Pro Glu]
[1]
  natural wound healing process, menstrual cycle and behavioural change (safety of systemic route): did not affect the natural wound healing process, menstrual cycle and behavioural change
[2]
  retinal function (ERG a- and b-wave amplitude): no significant difference in retinal function
[3]
  ERG a and b-wave responses (retinal function): increased the a and b-wave responses for 6 weeks post treatment and then again increased the response for 20 weeks with second dose
[4]
  normal corneal wound healing process (percentage of wound defect remaining): didn't adversely affect the normal wound healing process
